Series [1] has as its target T1, Gamma-secretase (Homo sapiens) (UniProt Q96BI3+Q9NZ42+Q8WW43+P49768+Q92542+P49810). In words: Inhibition of gamma-secretase-mediated betaAPP K670N/M671L mutant cleavage in HEK293 cells assessed as inhibition of amyloid beta40/42 production at 60 uM after 8 hrs by chemiluminescence assay relative to control. In kind it is cell-based.
The subject of series [2] is HEK293. The series can be described thus: Cytotoxicity against HEK293 cells overexpressing betaAPP K670N/M671L mutant at 10 to 30 uM by LDH release assay. It is filed as cell-based. To be noted: human, hek293, 30 µM.
In series [3] the target is T1, Gamma-secretase (Homo sapiens). In words: Inhibition of gamma-secretase-mediated betaAPP K670N/M671L mutant cleavage in HEK293 cells assessed as inhibition of amyloid beta40/42 production at 10 to 30 uM after 8 hrs by chemiluminescence assay relative to control. It is filed as cell-based.
Series [4] has the same target. In words: Modulation of gamma-secretase-mediated betaAPP K670N/M671L mutant cleavage in HEK293 cells assessed as inhibition of amyloid beta40/42 production at 60 uM after 8 hrs by chemiluminescence assay. It is filed as cell-based.
Series [5] deals with HEK293. In words: Cytotoxicity against HEK293 cells overexpressing betaAPP K670N/M671L mutant at 60 uM by LDH release assay. It is filed as cell-based. To be noted: human, hek293, 60 µM.
Series [6] deals with HEK293. The series can be described thus: Cytotoxicity against HEK293 cells overexpressing betaAPP K670N/M671L mutant at 10 uM by LDH release assay. In kind it is cell-based. To be noted: human, hek293, 10 µM.
Series [7] addresses T1, Gamma-secretase (Homo sapiens). The series can be described thus: Inhibition of presenilin-dependent gamma secretase complex in HEK293 solubilized membranes using Flag-C100 as substrate assessed as inhibition of amyloid beta40/42 production at 60 uM after 16 hrs by Western blotting analysis. It is filed as cell membranes.
The nature of series [8]: Half life of the compound in buffer. It is filed as physicochemical.
Series [9] has as its target T2, Proteasome Macropain subunit MB1 (Homo sapiens, UniProt P28074).
T2 sequence (P28074 whole entry): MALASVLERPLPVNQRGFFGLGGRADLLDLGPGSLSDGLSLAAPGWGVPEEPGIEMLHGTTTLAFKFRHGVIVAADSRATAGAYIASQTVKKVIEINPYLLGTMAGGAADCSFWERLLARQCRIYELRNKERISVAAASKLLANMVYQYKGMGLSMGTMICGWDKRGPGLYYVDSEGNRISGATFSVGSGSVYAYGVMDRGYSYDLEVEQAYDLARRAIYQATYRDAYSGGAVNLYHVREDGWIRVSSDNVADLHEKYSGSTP
The series can be described thus: Inhibition of chymotrypsin-like activity of Proteasome subunit beta 5 (unknown origin) assessed as inhibition of beta-amyloid production by cell-based assay.

A further series deals with Gamma-secretase. The series can be described thus: Inhibition of gamma-secretase-mediated betaAPP K670N/M671L mutant cleavage in HEK293 cells assessed as inhibition of amyloid beta40/42 production after 8 hrs by chemiluminescence assay. In kind it is cell-based, Homo sapiens.
For series [10], the target named is T1, Gamma-secretase (Homo sapiens). The series can be described thus: Modulation of gamma-secretase-mediated betaAPP K670N/M671L mutant cleavage in HEK293 cells assessed as inhibition of amyloid beta40/42 production at 10 to 30 uM after 8 hrs by chemiluminescence assay. It is filed as cell-based.
Series [11] in a line: Half life of the compound in hepes buffer. It is filed as physicochemical.

Calls of active or inactive are those of the source. The rule behind the calls is not given here.

Turning to `COc1oc(=O)c2cc(NC(=O)OC34CC5CC(CC(C5)C3)C4)ccc2c1Cl`, the inhibition entry in [1] was “inactive”.

Turning to `CCCCCCCCCNc1ccc2c(Cl)c(OC)oc(=O)c2c1`, the Activity entry in the series with HEK293 [2] is recorded as “Non-toxic”. For the same compound, the inhibition in series [3] was > 50%. Moreover, the inhibition result in series [4] is “Active”.

For `CCC(C)Oc1oc(=O)c2cc(N)ccc2c1Cl` (centres undefined), the Activity result is on record as “Toxic” in the series on HEK293 [5] and “Non-toxic” in the series with HEK293 [6].

With `COc1oc(=O)c2cc(NC(=O)OCC3c4ccccc4-c4ccccc43)ccc2c1Cl`, the inhibition result in series [1] is “inactive”.

Regarding `COc1oc(=O)c2cc(NC/C=C\c3ccccc3)ccc2c1Cl`, in series [1], the inhibition result was “inactive”. Besides, the Activity entry with HEK293 [5] is listed as “Non-toxic”.

As to `COc1oc(=O)c2cc(NCc3cccc4ccccc34)ccc2c1Cl`, the inhibition in series [1] is > 50%. In addition, the Activity result with HEK293 [5] is “Non-toxic”.

Take `CCCCC(CC)CNc1ccc2c(Cl)c(OC)oc(=O)c2c1` (centres undefined): the Activity result with HEK293 [2] was “Toxic”. In addition, the inhibition in [3] is > 50%.

Consider `CC(C)C[C@@H](NC(=O)[C@H](Cc1ccccc1)NC(=O)c1cnccn1)B(O)O`, for which the inhibition entry in series [7] and in series [1] was “inactive” throughout.

Regarding `CCC(C)Oc1oc(=O)c2cc([N+](=O)[O-])ccc2c1Cl` (centres undefined), the half-life in series [8] is < 20 min. For the same compound, the inhibition entry in [1] is “inactive”.

Take `COc1oc(=O)c2cc(NCC(C)(C)C)ccc2c1Cl`: the Activity result in the series with HEK293 [5] is “Toxic”.

As for `CC(C)C[C@@H](NC(=O)[C@H](Cc1ccccc1)NC(=O)c1ccccc1)B(O)O`, the inhibition result in [7] is “inactive”. Further, in series [1], the inhibition is > 50%.

For the compound `COc1oc(=O)c2cc(NC(=O)CCCC(=O)O)ccc2c1Cl`, the inhibition result in series [1] was “inactive”.

Regarding `COc1oc(=O)c2cc(NC(C)=O)ccc2c1Cl`, in [1], the inhibition result was “inactive”.

Take `COc1oc(=O)c2cc(Nc3cccc([N+](=O)[O-])c3)ccc2c1Cl`: the inhibition result in series [1] is “inactive”. The Activity entry in the series on HEK293 [5] was “Non-toxic”.

Turning to `COc1oc(=O)c2cc(NCc3ccccc3)ccc2c1Cl`, the inhibition result in series [1] was “inactive”. Further, the Activity entry in the series on HEK293 [5] is on record as “Non-toxic”.

Take `CCCCOc1oc(=O)c2cc([N+](=O)[O-])ccc2c1Cl`: the half-life in series [8] is < 20 min. The inhibition entry in [1] was “inactive”.

On to `COc1oc(=O)c2cc(NCCCc3ccccc3)ccc2c1Cl`, for which the inhibition result in [1] is “inactive”. Moreover, in the series with HEK293 [5], the Activity result is recorded as “Non-toxic”.

For the compound `CC(C)C[C@H](NC(=O)[C@H](Cc1ccccc1)NC(=O)c1ccccc1)B(O)O`, the inhibition entry in [7] was “inactive”. Moreover, the IC50 in series [9] was 9 nM. Further, the inhibition in series [1] was > 50%.

Consider `COc1oc(=O)c2cc(NC(=O)C(F)(F)C(F)(F)F)ccc2c1Cl`, for which the inhibition result in [1] was “inactive”.

Regarding `COc1oc(=O)c2cc(NCC(C)C)ccc2c1Cl`, at Gamma-secretase, the IC50 amounted to 10 µM. For the same compound, the Activity result in the series with HEK293 [2] is listed as “Non-toxic”. For the same compound, the inhibition in [3] and in series [1] was > 50% each time.

For the compound `COCCOc1cc2ccc([N+](=O)[O-])cc2c(=O)o1`, in series [1], the inhibition was > 50%.

As for `COc1oc(=O)c2cc(NCc3ccccc3[N+](=O)[O-])ccc2c1Cl`, the Activity result with HEK293 [2] was “Non-toxic”. Besides, the inhibition in series [3] is > 50%. Moreover, in series [10], the inhibition result is “inactive”.

Turning to `CCNc1ccc2c(Cl)c(OC)oc(=O)c2c1`, at Gamma-secretase, the IC50 was determined as 10 µM.

With `CCOC(=O)Nc1ccc2c(Cl)c(OC)oc(=O)c2c1`, the inhibition entry in [1] was “inactive”.

On to `COc1cc2ccc([N+](=O)[O-])cc2c(=O)o1`, for which the inhibition result in series [4] was “Active”.

Take `COc1oc(=O)c2cc(NC(=O)OC(C)(C)C)ccc2c1Cl`: the inhibition entry in series [1] is “inactive”.

For `COc1oc(=O)c2cc(NCCC(C)(C)C)ccc2c1Cl`, in the series on HEK293 [2], the Activity entry was “Toxic”. Moreover, the inhibition in [3] was > 50%.

On to `CCOc1oc(=O)c2cc(N)ccc2c1Cl`, for which, in [1], the inhibition was > 50%. In addition, the half-life in [11] was 210 min.

As for `COc1oc(=O)c2cc(N)ccc2c1Cl`, the half-life in series [11] is 210 min.

In the case of `COc1oc(=O)c2cc(NCc3ccc([N+](=O)[O-])cc3)ccc2c1Cl`, on Gamma-secretase, the IC50 came to 10 µM. Further, the Activity result in the series on HEK293 [2] is listed as “Non-toxic”. Moreover, the inhibition in series [3] and in series [1] was > 50% each time.

For `COc1oc(=O)c2cc(Nc3ccccc3)ccc2c1Cl`, the Activity entry in the series on HEK293 [5] is listed as “Toxic”.

Regarding `COc1oc(=O)c2cc(NCc3ccc4ccccc4c3)ccc2c1Cl`, the Activity result with HEK293 [2] was “Non-toxic”. For the same compound, in series [3], the inhibition is > 50%. In series [10], the inhibition result is “inactive”.

Consider `CCOc1oc(=O)c2cc([N+](=O)[O-])ccc2c1Cl`, for which the half-life in series [8] was < 20 min. The inhibition result in [1] is “inactive”.

Take `CC(C)C[C@H](NC(=O)[C@H](Cc1ccccc1)NC(=O)c1cnccn1)B(O)O`: the inhibition result in series [7] and in series [1] was “inactive” in each case.

In the case of `CCCCCCCC(=O)Nc1ccc2c(Cl)c(OC)oc(=O)c2c1`, the inhibition entry in series [1] was “inactive”.

Consider `CCCCCCNc1ccc2c(Cl)c(OC)oc(=O)c2c1`, for which, in series [1], the inhibition was > 50%. The Activity entry with HEK293 [5] is recorded as “Non-toxic”.

As for `COc1oc(=O)c2cc(NCC3CCCCC3)ccc2c1Cl`, the Activity result with HEK293 [2] is given as “Toxic”. In addition, in series [3], the inhibition is > 50%.

Consider `COc1oc(=O)c2cc(NC(=O)OCc3ccccc3)ccc2c1Cl`, for which, in [1], the inhibition result is “inactive”.

For the compound `COc1oc(=O)c2cc(NC(=O)OCC(Cl)(Cl)Cl)ccc2c1Cl`, the inhibition entry in [1] is “inactive”.

For `COc1oc(=O)c2cc(NCCC(C)C)ccc2c1Cl`, in [1], the inhibition was > 50%. Further, in the series with HEK293 [5], the Activity entry is given as “Non-toxic”.

On to `CCCCOc1oc(=O)c2cc(N)ccc2c1Cl`, for which the figures for the Activity result in the series with HEK293 [5] and with HEK293 [6] were “Toxic” and “Non-toxic”, respectively.

For the compound `CC(C)C[C@@H](NC(=O)[C@H](Cc1ccccc1)NC(=O)c1ccccc1)B1O[C@H]2C[C@H]3C[C@H](C3(C)C)[C@@]2(C)O1`, the inhibition entry in series [7] is “inactive”. For the same compound, the inhibition in series [1] is > 50%.

For `CC(C)C[C@@H](NC(=O)[C@H](Cc1ccccc1)NC(=O)c1cnccn1)B1O[C@H]2C[C@H]3C[C@H](C3(C)C)[C@@]2(C)O1`, the inhibition entry in series [7] and in [1] was “inactive” in each case.

For the compound `Nc1ccc2cc(OCCBr)oc(=O)c2c1`, the inhibition result in series [1] was “inactive”.

Consider `COc1oc(=O)c2cc(NCc3ccc(OCc4ccccc4)cc3)ccc2c1Cl`, for which, in the series on HEK293 [2], the Activity entry is reported as “Non-toxic”. For the same compound, in [3], the inhibition was > 50%. In addition, the inhibition result in series [10] is “inactive”.

Consider `COc1oc(=O)c2cc(NC(=O)C(C)(C)C)ccc2c1Cl`, for which, in series [4], the inhibition result is “Active”.

On to `CC(C)C[C@H](NC(=O)[C@H](Cc1ccccc1)NC(=O)c1cnccn1)B1O[C@H]2C[C@H]3C[C@H](C3(C)C)[C@@]2(C)O1`, for which the inhibition result in series [7] and in [1] was “inactive” throughout.

In the case of `O=c1oc(OCCBr)cc2ccc([N+](=O)[O-])cc12`, in series [1], the inhibition is > 50%.

For the compound `COCCOc1cc2ccc(N)cc2c(=O)o1`, the inhibition result in [1] was “inactive”.

On to `COc1cc2ccc(N)cc2c(=O)o1`, for which the inhibition entry in series [1] was “inactive”.

For the compound `CC(C)C[C@H](NC(=O)[C@H](Cc1ccccc1)NC(=O)c1ccccc1)B1O[C@H]2C[C@H]3C[C@H](C3(C)C)[C@@]2(C)O1`, the inhibition result in [7] was “inactive”. Further, the IC50 on Gamma-secretase stood at 10 µM. In series [1], the inhibition is > 50%.

With `C=CCOC(=O)Nc1ccc2c(Cl)c(OC)oc(=O)c2c1`, the inhibition entry in series [1] was “inactive”.

`COc1ccc(CNc2ccc3c(Cl)c(OC)oc(=O)c3c2)cc1`: the inhibition result in series [1] was “inactive”. Moreover, in the series with HEK293 [5], the Activity result is “Non-toxic”.

For the origin of these results see ChEMBL document CHEMBL2331080, “Further characterization of a putative serine protease contributing to the γ-secretase cleavage of β-amyloid precursor protein” (Bioorg Med Chem, 2013).
